Laboratory results: PubChem BioAssay (NCI)
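Test compounds were applied to cells in 96-well plates for 48 hours at 5 doses. At the GI50, growth is halved. At the TGI there is no net growth.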

Assays:
Experiment in all cases: NCI anticancer screen, dose series, 48 h
NCI-H23 lung = test system: NCI-H23 lung
SNB-19 CNS = test system: SNB-19 CNS
PC-3 prostate = test system: PC-3 prostate
MCF7 breast = test system: MCF7 breast
TK-10 renal = test system: TK-10 renal
NCI-H522 lung = test system: NCI-H522 lung
NCI/ADR-RES ovarian = test system: NCI/ADR-RES ovarian
HOP-62 NSCLC = test system: HOP-62 NSCLC
LOX IMVI melanoma = test system: LOX IMVI melanoma
SK-MEL-2 melanoma = test system: SK-MEL-2 melanoma
OVCAR-5 ovarian = test system: OVCAR-5 ovarian
HL-60(TB) leukemia = test system: HL-60(TB) leukemia
K-562 leukemia = test system: K-562 leukemia
DU-145 prostate = test system: DU-145 prostate
OVCAR-8 ovarian = test system: OVCAR-8 ovarian
HCT-15 colon = test system: HCT-15 colon
BT-549 breast = test system: BT-549 breast
HT29 colon = test system: HT29 colon
CCRF-CEM leukemia = test system: CCRF-CEM leukemia
SF-539 CNS = test system: SF-539 CNS
SW-620 colon = test system: SW-620 colon
M14 melanoma = test system: M14 melanoma
T-47D breast = test system: T-47D breast
NCI-H460 lung = test system: NCI-H460 lung
MOLT-4 leukemia = test system: MOLT-4 leukemia
MALME-3M melanoma = test system: MALME-3M melanoma
CAKI-1 renal = test system: CAKI-1 renal
UACC-257 melanoma = test system: UACC-257 melanoma
SK-MEL-28 melanoma = test system: SK-MEL-28 melanoma
SR leukemia = test system: SR leukemia
RPMI-8226 leukemia = test system: RPMI-8226 leukemia
HOP-92 NSCLC = test system: HOP-92 NSCLC
U251 CNS = test system: U251 CNS
OVCAR-4 ovarian = test system: OVCAR-4 ovarian
UO-31 renal = test system: UO-31 renal
SNB-75 CNS = test system: SNB-75 CNS
SN12C renal = test system: SN12C renal
786-0 renal = test system: 786-0 renal
A498 renal = test system: A498 renal
SK-OV-3 ovarian = test system: SK-OV-3 ovarian
OVCAR-3 ovarian = test system: OVCAR-3 ovarian
HS 578T breast = test system: HS 578T breast
IGROV1 ovarian = test system: IGROV1 ovarian
RXF 393 renal = test system: RXF 393 renal
NCI-H226 lung = test system: NCI-H226 lung
SF-295 CNS = test system: SF-295 CNS
ACHN renal = test system: ACHN renal
MDA-MB-231 breast = test system: MDA-MB-231 breast
HCC-2998 colon = test system: HCC-2998 colon
SK-MEL-5 melanoma = test system: SK-MEL-5 melanoma
KM12 colon = test system: KM12 colon
COLO 205 colon = test system: COLO 205 colon
UACC-62 melanoma = test system: UACC-62 melanoma
A549 NSCLC = test system: A549 NSCLC
MDA-MB-435 = test system: MDA-MB-435
HCT-116 colon = test system: HCT-116 colon
SF-268 CNS = test system: SF-268 CNS

N[C@@H]1CCCN(c2c(/C=C3\SC(=O)NC3=O)cccc2-c2ccccc2)C1
GI50 (NCI-H23 lung): 15.3 µM
TGI (NCI-H23 lung): 33.1 µM
GI50 (SNB-19 CNS): 2930 nM
TGI (SNB-19 CNS): 13.2 µM
GI50 (PC-3 prostate): 10.2 µM
TGI (PC-3 prostate): 25.2 µM
GI50 (MCF7 breast): 11.4 µM
TGI (MCF7 breast): 27.1 µM
GI50 (TK-10 renal): 13.6 µM
TGI (TK-10 renal): 26.8 µM
GI50 (NCI-H522 lung): 11.5 µM
TGI (NCI-H522 lung): 25.3 µM
GI50 (NCI/ADR-RES ovarian): 17.4 µM
TGI (NCI/ADR-RES ovarian): 40.4 µM
GI50 (HOP-62 NSCLC): 11.7 µM
TGI (HOP-62 NSCLC): 25.5 µM
GI50 (LOX IMVI melanoma): 15.7 µM
TGI (LOX IMVI melanoma): 30.1 µM
GI50 (SK-MEL-2 melanoma): 15.2 µM
TGI (SK-MEL-2 melanoma): 30.3 µM
GI50 (OVCAR-5 ovarian): 10.5 µM
TGI (OVCAR-5 ovarian): 23.4 µM
GI50 (HL-60(TB) leukemia): 17.8 µM
TGI (HL-60(TB) leukemia): 42.6 µM
GI50 (K-562 leukemia): 11.7 µM
TGI (K-562 leukemia): 54.2 µM
GI50 (DU-145 prostate): 13.7 µM
TGI (DU-145 prostate): 28.1 µM
GI50 (OVCAR-8 ovarian): 14 µM
TGI (OVCAR-8 ovarian): 27.9 µM
GI50 (HCT-15 colon): 13.7 µM
TGI (HCT-15 colon): 29.5 µM
GI50 (BT-549 breast): 11.5 µM
TGI (BT-549 breast): 24.1 µM
GI50 (HT29 colon): 12.8 µM
TGI (HT29 colon): 27.8 µM
GI50 (CCRF-CEM leukemia): 14 µM
TGI (CCRF-CEM leukemia): 38.8 µM
GI50 (SF-539 CNS): 8.09 µM
TGI (SF-539 CNS): 22.2 µM
GI50 (SW-620 colon): 12.8 µM
TGI (SW-620 colon): 28.3 µM
GI50 (M14 melanoma): 11.1 µM
TGI (M14 melanoma): 25.8 µM
GI50 (T-47D breast): 11.2 µM
TGI (T-47D breast): 28.8 µM
GI50 (NCI-H460 lung): 16.9 µM
TGI (NCI-H460 lung): 35.3 µM
GI50 (MOLT-4 leukemia): 14.7 µM
TGI (MOLT-4 leukemia): 45.6 µM
GI50 (MALME-3M melanoma): 7.52 µM
TGI (MALME-3M melanoma): 24.5 µM
GI50 (CAKI-1 renal): 15 µM
TGI (CAKI-1 renal): 31.7 µM
GI50 (UACC-257 melanoma): 10.9 µM
TGI (UACC-257 melanoma): 23.5 µM
GI50 (SK-MEL-28 melanoma): 13.1 µM
TGI (SK-MEL-28 melanoma): 27.8 µM
GI50 (SR leukemia): 4.64 µM
TGI (SR leukemia): 26.2 µM
GI50 (RPMI-8226 leukemia): 2230 nM
TGI (RPMI-8226 leukemia): 21.6 µM
GI50 (HOP-92 NSCLC): 3.17 µM
TGI (HOP-92 NSCLC): 20.1 µM
GI50 (U251 CNS): 3.3 µM
TGI (U251 CNS): 15.3 µM
GI50 (OVCAR-4 ovarian): 13.2 µM
TGI (OVCAR-4 ovarian): 28.4 µM
GI50 (UO-31 renal): 12.7 µM
TGI (UO-31 renal): 27.3 µM
GI50 (SNB-75 CNS): 3.31 µM
TGI (SNB-75 CNS): 17.5 µM
GI50 (SN12C renal): 14.4 µM
TGI (SN12C renal): 29.5 µM
GI50 (786-0 renal): 15.4 µM
TGI (786-0 renal): 29.8 µM
GI50 (A498 renal): 1500 nM
TGI (A498 renal): 18.8 µM
GI50 (SK-OV-3 ovarian): 15.5 µM
TGI (SK-OV-3 ovarian): 35 µM
GI50 (OVCAR-3 ovarian): 15.3 µM
TGI (OVCAR-3 ovarian): 29.4 µM
GI50 (HS 578T breast): 14 µM
TGI (HS 578T breast): 64 µM
GI50 (IGROV1 ovarian): 17.2 µM
TGI (IGROV1 ovarian): 35.1 µM
GI50 (RXF 393 renal): 6.06 µM
TGI (RXF 393 renal): 20.2 µM
GI50 (NCI-H226 lung): 12.8 µM
TGI (NCI-H226 lung): 36.9 µM
GI50 (SF-295 CNS): 3.57 µM
TGI (SF-295 CNS): 15.9 µM
GI50 (ACHN renal): 14.4 µM
TGI (ACHN renal): 29.5 µM
GI50 (MDA-MB-231 breast): 7.77 µM
TGI (MDA-MB-231 breast): 23.1 µM
GI50 (HCC-2998 colon): 14.1 µM
TGI (HCC-2998 colon): 28.6 µM
GI50 (SK-MEL-5 melanoma): 11.2 µM
TGI (SK-MEL-5 melanoma): 23.6 µM
GI50 (KM12 colon): 14.2 µM
TGI (KM12 colon): 28.9 µM
GI50 (COLO 205 colon): 11.6 µM
TGI (COLO 205 colon): 25.5 µM
GI50 (UACC-62 melanoma): 13.7 µM
TGI (UACC-62 melanoma): 27.3 µM
GI50 (A549 NSCLC): 13.6 µM
TGI (A549 NSCLC): 31.8 µM
GI50 (MDA-MB-435): 11.4 µM
TGI (MDA-MB-435): 24.3 µM
GI50 (HCT-116 colon): 13.1 µM
TGI (HCT-116 colon): 26.9 µM
GI50 (SF-268 CNS): 16.1 µM
TGI (SF-268 CNS): 33.2 µM
